Values after ≈ are worked out from the molar mass of the structure shown.
Key:
Plasmodium falciparum [1] = assay: Antiplasmodial activity against Plasmodium falciparum K1 infected human erythrocytes by [3H]hypoxanthine uptake; assay type: functional, organism-based
Plasmodium falciparum [2] = assay: Antiplasmodial activity against chloroquine-resistant Plasmodium falciparum W2 infected human erythrocytes by [3H]hypoxanthine uptake; assay type: functional, organism-based
Plasmodium falciparum [3] = assay: Antiplasmodial activity against chloroquine-sensitive Plasmodium falciparum D6 infected human erythrocytes by [3H]hypoxanthine uptake; assay type: functional, organism-based
Plasmodium yoelii [4] = assay: Antimalarial activity as reduced parasitaemia against Plasmodium berghei yoelii infected Swiss albino mice (Mus musculus) at 5 mg/kg/day peroral dose for 4 days; assay type: functional; parameters: scale not given: the % may be the effect or the level left; conditions: route oral
Plasmodium berghei [5] = assay: Antimalarial activity as reduced parasitaemia against Plasmodium berghei infected Swiss albino mice (Mus musculus) at 5 mg/kg/day peroral dose for 4 days; assay type: functional; parameters: scale not given: the % may be the effect or the level left; conditions: route oral
Plasmodium berghei [6] = assay: Antimalarial activity as reduced parasitaemia against Plasmodium berghei infected Swiss albino mice (Mus musculus) at 50 mg/kg/day peroral dose for 4 days; assay type: functional; parameters: scale not given: the % may be the effect or the level left; conditions: route oral
Plasmodium yoelii [7] = assay: Antimalarial activity as reduced parasitaemia against Plasmodium berghei yoelii infected Swiss albino mice (Mus musculus) at 50 mg/kg/day peroral dose for 4 days; assay type: functional; parameters: scale not given: the % may be the effect or the level left; conditions: route oral

SMILES	IC50 (Plasmodium falciparum [1]) [µg/mL]	IC50 (Plasmodium falciparum [2]) [µg/mL]	IC50 (Plasmodium falciparum [3]) [µg/mL]	Activity (Plasmodium yoelii [4]) [%]	Activity (Plasmodium berghei [5]) [%]	Activity (Plasmodium berghei [6]) [%]	Activity (Plasmodium yoelii [7]) [%]
C[C@@H]1CC[C@H]2[C@@H](C)C(=O)O[C@@H]3O[C@@]4(C)CC[C@@H]1[C@]32OO4 [ARTEMISININ]	0.0033 (≈ 0.0117 µM)	0.0027 (≈ 0.00956 µM)	0.0025 (≈ 0.00885 µM)	–	–	–	–
CCN(CC)CCCC(C)Nc1ccnc2cc(Cl)ccc12 (stereo unspecified) [CHLOROQUINE]	–	–	–	1.65	2.2	–	–
C[n+]1c2ccccc2cc2[n-]c3ccccc3c21.Cl [CRYPTOLEPINE HYDROCHLORIDE]	0.062	0.052	0.041	–	–	15.6	10.8
C[n+]1c2ccccc2cc2[n-]c3ccccc3c21 [CRYPTOLEPINE]	0.033 (≈ 0.142 µM)	0.041 (≈ 0.177 µM)	0.027 (≈ 0.116 µM)	–	–	45.4	13.7
Cn1c2c3ccccc3nc-2c(O)c2ccccc21 [HYDROXYCRYPTOLEPINE]	0.045 (≈ 0.181 µM)	0.059 (≈ 0.238 µM)	0.031 (≈ 0.125 µM)	–	–	43.2	–
OC(c1cc(C(F)(F)F)nc2c(C(F)(F)F)cccc12)C1CCCCN1 (stereo unspecified) [MEFLOQUINE]	–	0.0051 (≈ 0.0135 µM)	0.0063 (≈ 0.0167 µM)	–	–	–	–
Cn1c2nc3ccccc3c-2cc2ccccc21 [NEOCRYPTOLEPINE]	0.051 (≈ 0.22 µM)	0.065 (≈ 0.28 µM)	0.035 (≈ 0.151 µM)	–	–	–	–
c1ccc2nc3c(cc2c1)[nH]c1ccccc13 [QUINDOLINE]	0.087 (≈ 0.399 µM)	0.108 (≈ 0.495 µM)	0.063 (≈ 0.289 µM)	–	–	48.2	42.1
C=C[C@H]1CN2CC[C@H]1C[C@H]2[C@H](O)c1ccnc2ccc(OC)cc12 [QUININE]	0.0352 (≈ 0.108 µM)	–	0.0176 (≈ 0.0542 µM)	–	–	–	–

Source: ChEMBL document CHEMBL1145685, “In vitro and in vivo antiplasmodial activity of cryptolepine and related alkaloids from Cryptolepis sanguinolenta” (J Nat Prod, 1997)
